Source: patent US7176239B2, “Methods and compositions for treatment of Ataxia-telangeictasia” (priority 2003, dated 2007)
Counter-ions that a name gives are not always drawn.

Columns and labels:
[1] = test system: AT cells (AT22); assay: Colony forming-efficiency assay, cell survival with increasing CuCl2; type: cell-based, human; settings: AT22 versus VA13 cells, increasing concentrations of CuCl2; FIG. 4A
Protocol: Colony forming-efficiency experiments were performed as previously described (See R. E. Shackelford et al. The Ataxia telangiectasia Gene Product Is Required for Oxidative Stress-induced G1 and G2 Checkpoint Function in Human Fibroblasts, 276 J. BIOL. CHEM. 21951-21959 (2001)). In brief, exponentially growing cells were plated at 2,000 cells/100 mm tissue culture dish in 10 ml appropriate media, allowed to adhere 6 h, […], aspirin, diethylenetriaminepentaacetic acid (DTPA), hygromycin, and desferrioxamine mesylate were obtained from Sigma Chemical Corp (St. Louis, Mo.). Fetal calf serum (FCS) and Dulbecco's Modified Eagle's Medium (DMEM) were obtained from Invitrogen (Rockville, Md.). Culture dishes were obtained from Becton Dickinson (Franklin Lakes, N.J.).
Following treatment, the pates were washed 2× with media, the media replaced, and colonies fixed and stained after 14 days in culture by water: methanol addition (1:1) containing crystal violet (1 g/L). Colonies consisting of cell clusters containing greater than 50 cells were counted under a dissecting microscope. […] Standard deviations (error bars) were calculated from each experimental data point divided by the mean untreated value and averaged between experiments to obtain the mean standard deviation. […]

[2] = test system: ATDM-1, and ATDM-2 cells; assay: Mitotic delay assay (mitotic index after FeCl2 treatment); type: cell-based, human; settings: increasing concentrations of FeCl2, 15 min treatment, 2 h culture; NHF1 cells for comparison; fluorescence microscopy; FIG. 3
Protocol: Mitotic delay assays were performed as previously described (See R. E. Shackelford et al. The Ataxia telangiectasia Gene Product Is Required for Oxidative Stress-induced G1 and G2 Checkpoint Function in Human Fibroblasts, 276 J. BIOL. CHEM. 21951–21959 (2001)). In brief, cells were plated onto 100 mm tissue culture plates and incubated 48–72 h (to approximately 50% confluency). The cells were then treated with FeCl2 for 15 m as in the colony forming-efficiency assay, washed 2× with media, cultured 2 h, and the media was removed. The cells were fixed in 5 ml cold methanol for 10 min and air-dried. The cells were stained with 0.2 μg/ml 4′,6-diamidino-2-phenylindole (DAPI) in water and examined by fluorescence microscopy. The percentage of mitotic cells (mitotic delay) was determined by counts of 5,000 cells. Mitotic delay experiments were performed in triplicate and the standard deviations were calculated as in the colony forming-efficiency assays. (FIG. 3).

[3] = test system: AT cells; settings: AT cells treated with the antioxidant; Gatei et al. 2001; cited from earlier work
[4] = test system: AT cells (AT22, ATDM-1, ATDM-2); assay: Colony forming-efficiency assay, desferrioxamine/aspirin pretreatment then t-BOOH toxicity; type: cell-based, human; settings: for resistance to the toxic effects of t-BOOH exposure versus length of pretreatment / resistance to the toxic effects of t-BOOH versus concentration of pretreatment agent: AT22 cells; for resistance to the toxic effects of t-BOOH exposure versus length of pretreatment / resistance to t-BOOH toxicity (cell survival, percentage of untreated cells): desferrioxamine 100 μM, aspirin 0.3 mM; for resistance to the toxic effects of t-BOOH exposure versus length of pretreatment: FIG. 9; for resistance to the toxic effects of t-BOOH versus concentration of pretreatment agent: increasing concentrations of desferrioxamine or aspirin, FIG. 10A/10B; for resistance to t-BOOH toxicity (cell survival, percentage of untreated cells): pretreatment, increasing concentrations of t-BOOH, FIG. 8A
Protocol: Colony forming-efficiency experiments were performed as previously described (See R. E. Shackelford et al. The Ataxia telangiectasia Gene Product Is Required for Oxidative Stress-induced G1 and G2 Checkpoint Function in Human Fibroblasts, 276 J. BIOL. CHEM. 21951-21959 (2001)). In brief, exponentially growing cells were plated at 2,000 cells/100 mm tissue culture dish in 10 ml appropriate media, allowed to adhere 6 h, and treated 15 min with varying concentrations of t-BOOH or FeCl2 FeCl2, aspirin, diethylenetriaminepentaacetic acid (DTPA), hygromycin, and desferrioxamine mesylate were obtained from Sigma Chemical Corp (St. Louis, Mo.). Fetal calf serum (FCS) and Dulbecco's Modified Eagle's Medium (DMEM) were obtained from Invitrogen (Rockville, Md.). Culture dishes were obtained from Becton Dickinson (Franklin Lakes, N.J.).
Following treatment, the pates were washed 2× with media, the media replaced, and colonies fixed and stained after 14 days in culture by water: methanol addition (1:1) containing crystal violet (1 g/L). Colonies consisting of cell clusters containing greater than 50 cells were counted under a dissecting microscope. Unless otherwise noted, where desferrioxamine and/or aspirin pretreatment was employed, the cells were plated in desferrioxamine, aspirin, or desferrioxamine and aspirin, and allowed to adhere for 6 h. The plates were then washed 4× with media and treated with t-BOOH as above. Data indicates survival as a percentage of untreated cells. The AT22 and VA13 tumor cell lines were used at passages 20–40. The primary NHF1, ATDM-1, and ATDM-2 cell strains were used at passages 6–18. pEBS7 and pEBS7-YZ5 cells were used at passages 15–20. All experiments were done at least twice in triplicate. Standard deviations (error bars) were calculated from each experimental data point divided by the mean untreated value and averaged between experiments to obtain the mean standard deviation. (FIGS. 6–10B).

[5] = test system: normal cells (VA13, NHF1); assay: Colony forming-efficiency assay, apoferritin/quercetin pretreatment then t-BOOH toxicity; type: cell-based, human; settings: 6 h pretreatment with increasing concentrations, then 10 mM t-BOOH, FIG. 12A, 14A
Protocol: (§1) Preparation of cells is as described previously in Example 1. Colony forming-efficiency experiments were performed as previously described (See R. E. Shackelford et al. The Ataxia telangiectasia Gene Product Is Required for Oxidative Stress-induced G1 and G2 Checkpoint Function in Human Fibroblasts, 276 J. BIOL. CHEM. 21951–21959 (2001)). In brief, exponentially growing cells were plated at 2,000 cells/100 mm tissue culture dish in 10 ml appropriate media with an added iron chelating agent and cultured for 14 days. The resulting colonies were fixed and stained after 14 days culture by water:methanol addition (1:1) containing crystal violet (1 g/L). Colonies consisting of cell clusters containing greater than 50 cells were counted under a dissecting microscope. For experiments involving apoferritin or quercetin pre-exposure on t-BOOH resistance, the cells were allowed to adhere 6 h in increasing aopferritin or quercetin concentrations, washed 4× with 3 ml media, treated with 10 mM t-BOOH, washed 1× with 3 ml media, and allowed to grow for 14 days in 10 ml appropriate media. Data indicates survival as a percentage of untreated cells. The AT22 and VA13 tumor cell lines were used at passages 20–40. The primary NHF1, ATDM-1, and ATDM-2 cell strains were used at passages 6–19. All experiments were done at least twice in triplicate. Standard deviations (error bars) were calculated from each experimental data point divided by the mean untreated value and averaged between triplicate experiments to obtain the mean standard deviation. (FIGS. 11A–14C).

[6] = test system: AT cells (AT22, ATDM-1, ATDM-2); assay: as above; type: cell-based, human; settings: 6 h pretreatment with increasing concentrations, then 10 mM t-BOOH, FIG. 12A, 14A
Protocol: as §1

[7] = test system: AT cells (AT22, ATDM-1, ATDM-2); assay: Colony forming-efficiency assay, long-term culture with iron chelating agent or quercetin; type: cell-based, human; settings: long-term culture (14 days) with increasing concentrations; FIG. 11A, 13A
Protocol: as §1, with “The AT22 and VA13 tumor cell lines were used at passages 20–40. The primary NHF1, ATDM-1, and ATDM-2 cell strains were used at passages 6–19. All experiments were done at least twice in triplicate.” left out, “(FIGS. 11A–14C).” left out

## [Cl][Cu][Cl] [CuCl2]
[1]
  cell survival (percentage of untreated cells), sensitivity to CuCl2: increased sensitivity

## [Cl][Fe][Cl] [FeCl2]
[2]
  mitotic activity (percentage of the mitotic index of the mock-treated population), G2 checkpoint: induces a pATM-dependent G2 checkpoint

## O=C(O)CCCCC1CCSS1 (stereo not drawn) [a-lipoic acid]
[3]
  genotoxic stress-induced proteins: lowered

## CC(=O)Oc1ccccc1C(=O)O [aspirin]
[4]
  resistance to the toxic effects of t-BOOH exposure versus length of pretreatment: increases with longer exposure
  resistance to the toxic effects of t-BOOH versus concentration of pretreatment agent: increase the resistance
  resistance to t-BOOH toxicity (cell survival, percentage of untreated cells): increased resistance to t-BOOH toxicity

## CC(=O)N(O)CCCCCNC(=O)CCC(=O)N(O)CCCCCNC(=O)CCC(=O)N(O)CCCCCN [desferrioxamine, desferrioxamine mesylate]
[4]
  resistance to the toxic effects of t-BOOH exposure versus length of pretreatment: increases with longer exposure
  resistance to the toxic effects of t-BOOH versus concentration of pretreatment agent: increase the resistance
  resistance to t-BOOH toxicity (cell survival, percentage of untreated cells): increased resistance to t-BOOH toxicity

## O=c1c(O)c(-c2ccc(O)c(O)c2)oc2cc(O)cc(O)c12 [quercetin]
[5]
  resistance to t-BOOH toxicity (cell survival, percentage of untreated cells): increased resistance to t-BOOH toxicity
[6]
  resistance to t-BOOH toxicity (cell survival, percentage of untreated cells): increased resistance to t-BOOH toxicity
[7]
  plating efficiency (cell survival, percentage of untreated cells): increases the plating efficiency

## apoferritin
[5]
  resistance to t-BOOH toxicity (cell survival, percentage of untreated cells): increased resistance to t-BOOH toxicity
[6]
  resistance to t-BOOH toxicity (cell survival, percentage of untreated cells): increased resistance to t-BOOH toxicity
[7]
  plating efficiency (cell survival, percentage of untreated cells): increases the plating efficiency
